From PubChem BioAssay (NCI)
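Dose response: 5 concentrations. Exposure: 48 h. Format: 96-well plates. Endpoint: linear interpolation; highest concentration if not reached. At the GI50, growth is halved. Definition used: TGI = concentration required for complete inhibition of growth.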

Tests used:
Assay in all cases: NCI-60 cell line screen, 48 h
NCI-H522 lung = system: NCI-H522 lung
UACC-62 melanoma = system: UACC-62 melanoma
A498 renal = system: A498 renal
HOP-62 NSCLC = system: HOP-62 NSCLC
TK-10 renal = system: TK-10 renal
SF-295 CNS = system: SF-295 CNS
SF-268 CNS = system: SF-268 CNS
EKVX NSCLC = system: EKVX NSCLC
UO-31 renal = system: UO-31 renal
K-562 leukemia = system: K-562 leukemia

| SMILES | TGI (NCI-H522 lung) | TGI (UACC-62 melanoma) | TGI (A498 renal) | TGI (HOP-62 NSCLC) | TGI (TK-10 renal) | TGI (SF-295 CNS) | TGI (SF-268 CNS) | TGI (EKVX NSCLC) | TGI (UO-31 renal) | TGI (K-562 leukemia) | GI50 (HOP-62 NSCLC) | GI50 (NCI-H522 lung) | GI50 (UACC-62 melanoma) | GI50 (TK-10 renal) | GI50 (SF-295 CNS) | GI50 (SF-268 CNS) | GI50 (EKVX NSCLC) | GI50 (UO-31 renal) | GI50 (K-562 leukemia) | GI50 (A498 renal) |
| --- | --- | --- | --- | --- | --- | --- | --- | --- | --- | --- | --- | --- | --- | --- | --- | --- | --- | --- | --- | --- |
| Cc1cccc(C)c1N1C(=O)C(=O)C(c2nc3ccccc3s2)/C(=N/NC(=O)NN)C1=O (centres undefined) | > 100 µM | > 100 µM | > 100 µM | > 100 µM | > 100 µM | > 100 µM | > 100 µM | > 100 µM | > 100 µM |  |  |  |  |  |  |  |  |  |  |  |
| O=C1[C@H]2ON(c3ccccc3)C(c3ccco3)[C@H]2C(=O)N1c1ccc(Cc2ccc(N3C(=O)[C@@H]4ON(c5ccccc5)C(c5ccco5)[C@@H]4C3=O)cc2)cc1 (some centres undefined) |  | > 100 µM | > 100 µM | > 100 µM |  | > 100 µM | > 100 µM |  | > 100 µM | > 100 µM |  |  |  |  |  |  |  |  |  |  |
| CC(C)[O-].CC(C)[O-].O=c1cccccc1[O-].O=c1cccccc1[O-].[Ti+4] | 62.8 µM | > 100 µM |  | > 100 µM | > 100 µM | > 100 µM | > 100 µM | > 100 µM | > 100 µM | > 100 µM | > 100 µM |  |  |  |  |  |  |  |  |  |
| Cc1ccc2oc(=O)c(-c3ccccc3)nc2c1 | 48.7 µM |  |  | > 100 µM | > 100 µM | > 100 µM | > 100 µM | > 100 µM | 95.1 µM | > 100 µM |  |  |  |  |  |  |  |  |  |  |
| O=C(/C=C/c1cccc(O)c1)c1cccc(-n2cc(-c3ccc4ccccc4c3)[nH]c2=O)c1 | 2.9 µM | 4.92 µM |  | 4.29 µM | 8.53 µM | 3.63 µM | 3.55 µM | 13.9 µM | 2.64 µM | 4.88 µM | 2.26 µM | 1.29 µM | 1.8 µM | 3.45 µM | 1.44 µM | 1.73 µM | 2.64 µM | 1.26 µM | 1.43 µM |  |
| CSc1ccc(N(C)c2nc(C)nc3c2CCC3)cc1 | < 0.01 µM | 25 µM | < 0.01 µM | 21.3 µM |  | 12.2 µM | 60.4 µM | 82 µM |  | > 100 µM | < 0.01 µM | < 0.01 µM | < 0.01 µM |  | < 0.01 µM | < 0.01 µM | < 0.01 µM |  | < 0.01 µM | < 0.01 µM |
| CCOC(=O)N1CCN(CCCCCOc2ccccc2C2CCCCC2)CC1 |  | 19.7 µM | 26.9 µM | 8.05 µM | 21.7 µM | 13.9 µM | 35.1 µM | 16.5 µM |  | 10.9 µM | 2.52 µM |  | 4.86 µM | 7.99 µM | 2.65 µM | 15.3 µM | 3.23 µM |  | 1.97 µM | 13.5 µM |
| O=C1C2=C(CCC2)Nc2cccc3ncn1c23 | > 100 µM | > 100 µM |  |  | 75.7 µM | > 100 µM | > 100 µM | > 100 µM | > 100 µM | > 100 µM |  |  |  |  |  |  |  |  |  |  |
| COc1ccc(Nc2nccc(N3CCN(c4c5ccc(Cl)cc5nc5ccc(OC)cc45)CC3)n2)cc1 | 5.09 µM | > 100 µM | 31 µM | > 100 µM | > 100 µM | 42.3 µM | > 100 µM |  | > 100 µM | > 100 µM | 38.7 µM | 1.78 µM | 16.8 µM | 11.5 µM | 10.7 µM | 11.8 µM |  | 8.26 µM | 3.06 µM | 2.4 µM |
| Cc1ccc(NC(=O)/C(Cc2nc3ccc([N+](=O)[O-])cc3[nH]c2=O)=N\NC(=O)C[n+]2ccccc2)c(C)c1 | 61.6 µM | > 100 µM |  | > 100 µM | 64.4 µM | > 100 µM | > 100 µM | > 100 µM | 41.1 µM |  |  |  |  |  |  |  |  |  |  |  |
| C=CC1=C(C)C2=NC1=CC1=NC(=CC3=C(C)C4=C(O)[C@H](C(=O)OC)C(=C5NC(=C2)[C@@H](C)[C@@H]5CCC(=O)O)C4=N3)C(CC)=C1C |  | 7.99 µM |  | > 33.5 µM | 25.5 µM | 6.01 µM | > 100 µM |  | 11.7 µM | 6.24 µM |  |  |  |  |  |  |  |  |  |  |
| N#CC(C#N)=c1c2nsnc2c(=C(C#N)C#N)c2nsnc12 | 3.51 µM |  |  | 3.59 µM | 31.3 µM | 3.33 µM | 4.26 µM | 14.9 µM | 3.87 µM |  |  |  |  |  |  |  |  |  |  |  |
| CCOC(=O)c1c(SCCN2CCOCC2)n(-c2ccccc2)c(=S)n(-c2ccccc2)c1=O | > 100 µM | > 100 µM |  |  | > 100 µM | 61.2 µM | > 100 µM |  | > 100 µM | 38 µM |  |  |  |  |  |  |  |  |  |  |
| Cc1ccc(C)c(N2C(=O)C(=O)C(c3nc4ccccc4s3)C(=Nc3cccc4c(=O)[nH][nH]c(=O)c34)C2=O)c1 (centres undefined) |  | > 100 µM | > 100 µM | > 100 µM | > 100 µM | > 100 µM | > 100 µM | > 100 µM | > 100 µM | > 100 µM |  |  |  |  |  |  |  |  |  |  |
| O=c1[nH]c2cc([N+](=O)[O-])ccc2nc1/C(=N\Nc1ccccc1)C(O)c1ccc2c(c1)OCO2 (centres undefined) | > 100 µM | > 100 µM |  | > 100 µM | > 100 µM | > 100 µM | > 100 µM | > 100 µM | > 100 µM | > 100 µM |  |  |  |  |  |  |  |  |  |  |
| Cc1cccc(C)c1N1C(=O)C(=O)C(c2nc3ccccc3s2)C(=Nc2cccc3c(=O)[nH][nH]c(=O)c23)C1=O (centres undefined) |  | > 100 µM | > 100 µM | > 100 µM | > 100 µM | > 100 µM | > 100 µM | > 100 µM | > 100 µM | > 100 µM |  |  |  |  |  |  |  |  |  |  |
| c1ccc2[nH]c(CNc3ccc(C4C[Se]N=N4)cc3)nc2c1 (centres undefined) | > 100 µM | 99 µM | > 100 µM | > 100 µM | > 100 µM | 92.3 µM | > 100 µM |  | > 100 µM | > 100 µM |  |  |  |  |  |  |  |  |  |  |
| c1ccc(-c2nc(N3CCCNCC3)c3nc(-c4ccccc4)oc3n2)cc1 |  | 3.34 µM | 2.3 µM | 3.23 µM | 3 µM | 3.25 µM | 3.62 µM | 3.17 µM | 2.71 µM |  | 1.58 µM |  | 1.81 µM | 1.53 µM | 1.81 µM | 1.76 µM | 1.65 µM | 1.35 µM |  | 1.07 µM |
| COc1ccc(-c2cnoc2-c2cc(OC)c3c(c2)OCCO3)cc1 | 0.0842 µM | > 100 µM | 0.164 µM | 56.6 µM | > 100 µM | 22.3 µM | > 100 µM |  | > 100 µM | > 100 µM | 0.0319 µM | < 0.0141 µM | < 0.015 µM | 16.7 µM | < 0.0108 µM | 0.127 µM |  | 0.283 µM | < 0.0115 µM | 0.0149 µM |
| COc1ccccc1NC(=O)/C(=C/c1ccccc1)C(C)=O | 58.2 µM | > 100 µM |  | > 100 µM | > 100 µM | 71 µM | > 100 µM | > 100 µM | > 100 µM | > 100 µM |  |  |  |  |  |  |  |  |  |  |
| Clc1ccc2c(c1)N(c1ncnc3ccc(-c4cnc5[nH]ncc5c4)cc13)CC2 | > 100 µM | > 100 µM |  | > 100 µM | > 100 µM | > 100 µM | > 100 µM | > 100 µM | > 100 µM |  | 0.463 µM | 2.23 µM | 0.46 µM | 0.835 µM | 0.632 µM | 0.538 µM | 0.338 µM | 0.151 µM |  |  |
| Fc1ccc2nc(-c3cc(-c4ccc5c(c4)OCO5)n[nH]3)[nH]c2c1 | 13 µM | > 52.2 µM | > 100 µM | > 43.4 µM | > 45.1 µM | > 81.3 µM | > 54.9 µM |  | > 24 µM | > 100 µM | 5.44 µM | 2.61 µM | 4.37 µM | 7.3 µM | 4.99 µM | 5.22 µM |  | 2.5 µM | 4.35 µM | 3.27 µM |
| CC1c2ccccc2N=C2SC(=S)N3CCN=C3N21 (centres undefined) | > 100 µM | > 100 µM |  | > 100 µM | > 100 µM | > 100 µM | > 100 µM | > 100 µM | > 100 µM | > 100 µM | > 100 µM | > 100 µM | > 100 µM | > 100 µM | 97.8 µM | > 100 µM | 4.33 µM | > 100 µM | > 100 µM |  |
| O=C1/C(=C/c2cccc([N+](=O)[O-])c2)Sc2scc(-c3ccc([N+](=O)[O-])cc3)[n+]21 |  | 48.5 µM |  | 38.3 µM |  | 53.6 µM |  | 61.1 µM | 24.1 µM |  |  |  |  |  |  |  |  |  |  |  |
| CCOC(=O)C1(Cc2ccc3ccccc3c2)CCCCC(=O)N1 (centres undefined) |  | > 100 µM |  | > 100 µM | > 100 µM | 35.2 µM | > 100 µM | > 100 µM | 82.2 µM | > 100 µM |  |  |  |  |  |  |  |  |  |  |
| OCc1ccc(N2CCOCC2)cc1Cl | > 100 µM | > 91.2 µM | 0.926 µM | > 100 µM | 11.4 µM | > 100 µM | > 100 µM |  | > 100 µM | > 100 µM | > 100 µM | > 100 µM | 14.4 µM | 2.94 µM | 28.2 µM | > 100 µM |  | > 100 µM | > 100 µM | 0.224 µM |
| C/C1=C\CC[C@@](C)(O)[C@@H]2C[C@H](CC/C(C)=C/CC1)C1(CC1)C(=O)O2 | > 100 µM | 37.3 µM |  | > 100 µM | 96.5 µM | 85.6 µM | > 100 µM | > 100 µM | > 100 µM | 46.6 µM | 45.1 µM | 35.1 µM | 15.2 µM | 29.6 µM | 26.7 µM | 81.7 µM | 45.4 µM | 46.5 µM | 13.6 µM |  |
